Where two headings read alike, the source gives them in different places.
Assays:
Assay in all cases: Kinase selectivity, DiscoverX scanMAX Kinase assay panel (% control)
Format in all cases: binding
[1] = biological target: T1, kinases of the scanMAX Kinase assay panel (Homo sapiens, UniProt P07949, V804L); conditions: kinase RET(V804L); 1 uM in DMSO
T1 construct: purchased DiscoverX Co. (contract measurement) scanMAX Kinase assay panel
Summary of the method: (§1)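 Binding-panel profiling at one concentration, 1 uM in DMSO; values are % of DMSO control after subtracting the positive-control floor. Less than 35% means activity on that kinase.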

[2] = biological target: T2, kinases of the scanMAX Kinase assay panel (Homo sapiens, UniProt P42336, C420R); conditions: PIK3CA(C420R); 1 uM
T2 construct: purchased DiscoverX Co. (contract measurement) scanMAX Kinase assay panel
Summary of the method: as §1

[3] = biological target: T3, kinases of the scanMAX Kinase assay panel (Homo sapiens, UniProt P51812); conditions: 1 uM in DMSO
T3 construct: purchased DiscoverX Co. (contract measurement) scanMAX Kinase assay panel
Summary of the method: as §1

[4] = biological target: T4, kinases of the scanMAX Kinase assay panel (Homo sapiens, UniProt Q13188); conditions: MST2; 1 uM
T4 construct: purchased DiscoverX Co. (contract measurement) scanMAX Kinase assay panel
T4 sequence (Q13188 1-491): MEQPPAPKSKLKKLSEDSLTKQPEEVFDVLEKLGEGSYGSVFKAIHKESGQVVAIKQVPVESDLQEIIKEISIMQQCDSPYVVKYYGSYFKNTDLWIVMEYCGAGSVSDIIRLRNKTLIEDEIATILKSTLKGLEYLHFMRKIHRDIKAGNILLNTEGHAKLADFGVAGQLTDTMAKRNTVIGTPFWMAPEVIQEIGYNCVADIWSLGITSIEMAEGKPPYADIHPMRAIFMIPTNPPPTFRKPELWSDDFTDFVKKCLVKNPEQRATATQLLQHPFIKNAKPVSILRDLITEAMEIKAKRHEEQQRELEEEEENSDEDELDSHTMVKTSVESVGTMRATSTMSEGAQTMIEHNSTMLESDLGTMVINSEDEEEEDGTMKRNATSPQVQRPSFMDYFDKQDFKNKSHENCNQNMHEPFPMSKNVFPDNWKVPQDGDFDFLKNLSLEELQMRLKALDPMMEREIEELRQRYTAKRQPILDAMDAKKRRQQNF
Summary of the method: as §1

[5] = biological target: T5, kinases of the scanMAX Kinase assay panel (Homo sapiens, UniProt Q8N752); conditions: CSNK1A1L; 1 uM
T5 construct: purchased DiscoverX Co. (contract measurement) scanMAX Kinase assay panel
T5 sequence (Q8N752 1-337): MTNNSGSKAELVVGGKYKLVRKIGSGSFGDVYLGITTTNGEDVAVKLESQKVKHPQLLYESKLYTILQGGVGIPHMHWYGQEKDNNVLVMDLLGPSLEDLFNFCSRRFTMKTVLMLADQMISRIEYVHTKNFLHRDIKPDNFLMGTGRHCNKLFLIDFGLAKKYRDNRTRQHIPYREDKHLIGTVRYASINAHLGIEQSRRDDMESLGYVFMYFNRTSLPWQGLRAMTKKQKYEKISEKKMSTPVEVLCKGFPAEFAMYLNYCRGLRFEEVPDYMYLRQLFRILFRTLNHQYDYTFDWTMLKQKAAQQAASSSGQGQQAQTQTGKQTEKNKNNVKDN
Summary of the method: as §1

[6] = biological target: T6, kinases of the scanMAX Kinase assay panel (Homo sapiens, UniProt Q99640); conditions: PKMYT1; 1 uM
T6 construct: purchased DiscoverX Co. (contract measurement) scanMAX Kinase assay panel
T6 sequence (Q99640 1-499): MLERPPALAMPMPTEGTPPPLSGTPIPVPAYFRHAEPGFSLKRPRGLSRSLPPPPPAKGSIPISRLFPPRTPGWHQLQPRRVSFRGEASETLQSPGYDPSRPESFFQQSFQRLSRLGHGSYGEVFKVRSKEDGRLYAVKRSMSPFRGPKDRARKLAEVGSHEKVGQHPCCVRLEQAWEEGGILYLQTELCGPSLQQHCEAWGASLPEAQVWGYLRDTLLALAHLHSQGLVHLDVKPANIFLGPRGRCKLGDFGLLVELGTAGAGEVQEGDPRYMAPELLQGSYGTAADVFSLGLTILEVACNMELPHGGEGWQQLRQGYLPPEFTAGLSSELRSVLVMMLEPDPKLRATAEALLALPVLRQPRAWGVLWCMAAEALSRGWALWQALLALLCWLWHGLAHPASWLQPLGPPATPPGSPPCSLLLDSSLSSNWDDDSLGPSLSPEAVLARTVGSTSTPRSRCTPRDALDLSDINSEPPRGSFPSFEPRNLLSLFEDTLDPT
Summary of the method: as §1

[7] = biological target: T7, kinases of the scanMAX Kinase assay panel (Homo sapiens, UniProt Q9NWZ3); conditions: IRAK4; 1 uM
T7 construct: purchased DiscoverX Co. (contract measurement) scanMAX Kinase assay panel
T7 sequence (Q9NWZ3 1-460): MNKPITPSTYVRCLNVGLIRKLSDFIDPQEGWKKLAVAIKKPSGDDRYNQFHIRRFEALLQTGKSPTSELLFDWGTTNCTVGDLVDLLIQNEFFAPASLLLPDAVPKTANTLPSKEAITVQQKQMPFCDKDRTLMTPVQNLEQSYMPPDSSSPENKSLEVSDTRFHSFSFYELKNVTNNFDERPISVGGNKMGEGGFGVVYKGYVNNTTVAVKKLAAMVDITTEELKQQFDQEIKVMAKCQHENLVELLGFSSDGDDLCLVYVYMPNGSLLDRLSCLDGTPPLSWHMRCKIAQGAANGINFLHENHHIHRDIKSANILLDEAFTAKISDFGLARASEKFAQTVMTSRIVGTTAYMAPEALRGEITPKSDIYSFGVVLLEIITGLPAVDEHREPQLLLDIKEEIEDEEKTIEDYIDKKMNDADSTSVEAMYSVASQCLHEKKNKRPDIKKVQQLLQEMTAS
Summary of the method: as §1

[8] = biological target: T8, kinases of the scanMAX Kinase assay panel (Homo sapiens, UniProt Q9NY57); conditions: kinase YANK2; 1 uM in DMSO
T8 construct: purchased DiscoverX Co. (contract measurement) scanMAX Kinase assay panel
Summary of the method: as §1

[9] = kinase RSK2(Kin.Dom.1-N-terminal), read-out: % control, RSK2(Kin.Dom.1-N-terminal)
[10] = kinase RSK2(Kin.Dom.2-C-terminal), read-out: % control, RSK2(Kin.Dom.2-C-terminal)

T8 sequence (Q9NY57 whole entry): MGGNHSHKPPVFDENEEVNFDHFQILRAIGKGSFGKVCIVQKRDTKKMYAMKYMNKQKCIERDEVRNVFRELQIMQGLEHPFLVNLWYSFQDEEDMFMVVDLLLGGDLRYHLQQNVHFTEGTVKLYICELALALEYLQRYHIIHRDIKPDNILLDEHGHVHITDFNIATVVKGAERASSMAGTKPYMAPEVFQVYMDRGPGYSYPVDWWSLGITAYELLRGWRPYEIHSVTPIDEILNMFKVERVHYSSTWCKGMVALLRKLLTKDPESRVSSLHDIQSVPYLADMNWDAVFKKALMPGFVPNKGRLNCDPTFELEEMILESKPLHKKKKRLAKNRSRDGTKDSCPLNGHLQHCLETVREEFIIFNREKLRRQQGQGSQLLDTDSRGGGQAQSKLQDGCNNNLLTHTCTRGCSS
T3 sequence (P51812 whole entry): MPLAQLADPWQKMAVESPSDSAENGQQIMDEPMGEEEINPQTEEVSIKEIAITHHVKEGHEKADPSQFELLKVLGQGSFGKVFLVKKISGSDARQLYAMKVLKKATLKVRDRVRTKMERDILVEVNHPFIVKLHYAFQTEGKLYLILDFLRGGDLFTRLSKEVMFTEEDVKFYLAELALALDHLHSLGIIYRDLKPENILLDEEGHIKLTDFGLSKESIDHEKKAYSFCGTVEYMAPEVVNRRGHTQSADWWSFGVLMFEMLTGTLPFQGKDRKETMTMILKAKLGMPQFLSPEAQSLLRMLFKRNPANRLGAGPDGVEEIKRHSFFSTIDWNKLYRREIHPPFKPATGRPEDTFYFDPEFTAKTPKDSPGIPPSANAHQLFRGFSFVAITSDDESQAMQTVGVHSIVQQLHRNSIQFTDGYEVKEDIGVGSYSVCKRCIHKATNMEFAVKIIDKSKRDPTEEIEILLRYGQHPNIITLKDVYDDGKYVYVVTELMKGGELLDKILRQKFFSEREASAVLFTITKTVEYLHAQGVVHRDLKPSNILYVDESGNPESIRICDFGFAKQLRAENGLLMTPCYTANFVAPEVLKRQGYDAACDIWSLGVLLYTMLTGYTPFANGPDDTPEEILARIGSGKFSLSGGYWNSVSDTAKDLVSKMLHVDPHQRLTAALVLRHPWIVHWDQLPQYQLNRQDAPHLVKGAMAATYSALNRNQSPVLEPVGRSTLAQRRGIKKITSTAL
T2 sequence (P42336 whole entry C420R): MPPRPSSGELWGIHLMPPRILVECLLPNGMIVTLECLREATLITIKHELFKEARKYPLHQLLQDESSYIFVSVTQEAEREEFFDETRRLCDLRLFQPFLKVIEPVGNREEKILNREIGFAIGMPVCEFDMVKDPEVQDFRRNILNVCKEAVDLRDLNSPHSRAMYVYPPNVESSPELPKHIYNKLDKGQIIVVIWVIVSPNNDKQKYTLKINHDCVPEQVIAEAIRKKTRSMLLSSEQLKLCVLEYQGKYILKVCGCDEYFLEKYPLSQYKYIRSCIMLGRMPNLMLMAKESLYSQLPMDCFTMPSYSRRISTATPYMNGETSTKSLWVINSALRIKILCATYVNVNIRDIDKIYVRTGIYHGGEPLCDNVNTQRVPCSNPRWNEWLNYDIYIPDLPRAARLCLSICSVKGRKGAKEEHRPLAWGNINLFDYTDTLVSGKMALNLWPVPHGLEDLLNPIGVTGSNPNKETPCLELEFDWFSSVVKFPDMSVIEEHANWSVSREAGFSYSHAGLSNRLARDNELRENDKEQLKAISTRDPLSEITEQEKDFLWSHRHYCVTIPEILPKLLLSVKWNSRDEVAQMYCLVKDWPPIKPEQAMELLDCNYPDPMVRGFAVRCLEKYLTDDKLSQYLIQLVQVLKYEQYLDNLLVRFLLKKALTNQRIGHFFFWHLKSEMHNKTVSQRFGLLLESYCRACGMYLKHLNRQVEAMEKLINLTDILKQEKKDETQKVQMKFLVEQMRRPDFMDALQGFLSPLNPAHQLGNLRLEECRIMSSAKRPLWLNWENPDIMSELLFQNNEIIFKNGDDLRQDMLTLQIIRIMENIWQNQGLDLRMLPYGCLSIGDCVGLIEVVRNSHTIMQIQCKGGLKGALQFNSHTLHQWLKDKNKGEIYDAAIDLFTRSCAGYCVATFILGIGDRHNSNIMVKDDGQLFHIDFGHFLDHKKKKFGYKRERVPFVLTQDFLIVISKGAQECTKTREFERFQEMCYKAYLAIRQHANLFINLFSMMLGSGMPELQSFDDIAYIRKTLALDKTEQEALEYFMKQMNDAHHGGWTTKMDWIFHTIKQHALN
T1 sequence (P07949 29-1114 V804L): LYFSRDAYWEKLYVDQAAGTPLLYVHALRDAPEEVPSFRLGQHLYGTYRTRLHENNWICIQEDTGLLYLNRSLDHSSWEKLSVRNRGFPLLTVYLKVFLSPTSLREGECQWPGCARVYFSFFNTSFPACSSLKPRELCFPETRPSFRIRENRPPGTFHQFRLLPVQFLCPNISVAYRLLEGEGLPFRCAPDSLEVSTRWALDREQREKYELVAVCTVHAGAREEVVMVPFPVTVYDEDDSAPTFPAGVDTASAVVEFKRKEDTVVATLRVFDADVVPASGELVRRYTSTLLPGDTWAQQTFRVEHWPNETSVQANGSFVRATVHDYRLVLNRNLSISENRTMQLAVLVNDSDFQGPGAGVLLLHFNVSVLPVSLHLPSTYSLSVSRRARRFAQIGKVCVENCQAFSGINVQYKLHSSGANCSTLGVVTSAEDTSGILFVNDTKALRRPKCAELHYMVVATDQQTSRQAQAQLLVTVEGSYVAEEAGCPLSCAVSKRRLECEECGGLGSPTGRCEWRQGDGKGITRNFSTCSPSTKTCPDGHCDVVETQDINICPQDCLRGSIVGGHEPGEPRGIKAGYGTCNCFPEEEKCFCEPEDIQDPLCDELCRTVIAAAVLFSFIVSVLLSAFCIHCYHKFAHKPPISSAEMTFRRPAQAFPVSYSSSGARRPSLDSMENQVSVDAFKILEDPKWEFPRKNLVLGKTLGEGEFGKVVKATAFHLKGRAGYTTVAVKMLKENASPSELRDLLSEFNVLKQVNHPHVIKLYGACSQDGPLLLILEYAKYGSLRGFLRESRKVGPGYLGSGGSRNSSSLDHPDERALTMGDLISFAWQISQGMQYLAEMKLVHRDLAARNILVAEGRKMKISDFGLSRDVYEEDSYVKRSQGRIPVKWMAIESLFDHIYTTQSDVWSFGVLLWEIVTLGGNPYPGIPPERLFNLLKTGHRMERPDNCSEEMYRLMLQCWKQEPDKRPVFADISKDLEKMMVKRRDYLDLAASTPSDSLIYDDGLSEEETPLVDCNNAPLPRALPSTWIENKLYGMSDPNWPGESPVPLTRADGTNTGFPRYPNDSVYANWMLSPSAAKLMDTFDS

| SMILES | remaining binding at 1 µM [1] | remaining binding at 1 µM [2] | remaining binding at 1 µM [3, 9] | remaining binding at 1 µM [3, 10] | remaining binding at 1 µM [4] | remaining binding at 1 µM [5] | remaining binding at 1 µM [6] | remaining binding at 1 µM [7] | remaining binding at 1 µM [8] |
| --- | --- | --- | --- | --- | --- | --- | --- | --- | --- |
| CNc1nc(Nc2ccc(C(=O)N3CCOCC3)cc2OC)nc2[nH]cc(C#N)c12 [Example 1, 2-((2-methoxy-4-(morpholine-4-carbonyl)phenyl)amino)-4-(methylamino)-7H-pyrrolo[2,3-d]pyrimidine-5-carbonitrile] | 79% | 94% | 68% | 66% | 92% | 34% | 99% | 92% | 85% |
| CC1(Nc2nc(Nc3cnn([C@H]4CCN(C5COC5)C[C@@H]4F)c3Cl)nc3[nH]cc(C#N)c23)CC1 [Example 52, 2-((5-chloro-1-((3S,4S)-3-fluoro-1-(oxetane-3-yl)piperidine-4-yl)-1H-pyrazole-4-yl)amino)((1-methylcyclopropyl)amino)-7H-pyrrolo[2,3-d]pyrimidine-5-carbonitrile] | 0% | 63% | 0.55% | 100% | 15% | 0.85% | 89% | 0.2% | 100% |
| CCNc1nc(Nc2ccc(C(=O)N3CCC(N4CCOCC4)CC3)cc2OC)nc2[nH]cc(C(F)(F)F)c12 [Example 104, (4-((4-(ethylamino)-5-(trifluoromethyl)-7H-pyrrolo[2,3-d]pyrimidine-2-yl)amino)-3-methoxyphenyl)(4-morpholinopiperidine-1-yl)methanone] | 89% | 91% | 100% | 71% | 71% | 15% | 100% | 100% | 100% |

— US11208412B2 (DAEGU-GYEONGBUK MEDICAL INNOVATION FOUNDATION, priority 2017, dated 2021)
